Earlier results on five compounds are cited in patent EP3645498B1, “PROCESS FOR RECOVERING ACETIC ACID FROM AN AQUEOUS STREAM COMPRISING THE SAME” (Nouryon Chemicals International B.V., priority 2017, dated 2019).

Where two headings read alike, the source gives them in different places. Some results are limits rather than exact numbers.

As to `CCCCCCCCCCCO` [1 -Undecanol, 1-undecanol], the Solubility in water entry (result in words) was “Insoluble^[10]”.

For the compound `CCCCCCCCCCCCc1ccccc1` [Phenyldodecane, phenyldodecane], where the note is “result in words”, the Solubility in water entry is “Insoluble^[11]”.

With `CCCCCCCCN(CCCCCCCC)CCCCCCCC` [TOA, trioctylamine], the Solubility in water was less than 5ppm^[2].

Regarding `CCCCCCCCP(=O)(CCCCCCCC)CCCCCCCC` [TOPO, tri-octylphosphine oxide], the Solubility in water entry (result in words) was “Insoluble^[5]”.

Turning to `CCCCCCCCCCCCCC` [n-Tetradecane, n-tetradecane], the Solubility in water is 0.0022 mg/L^[8].
